Measured values published in patent US10829501B2 (BRISTOL-MYERS SQUIBB COMPANY, priority 2016, dated 2020).
Where a name gives a salt, the structure may show the parent alone.

These molecules were tested against ROCK2 (Homo sapiens, UniProt O75116) (assay: ROCK2 kinase inhibition assay (LABCHIP 3000 Reader, FITC peptide substrate)). Details: not given.
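Note: rho kinase reaction read by separating phosphorylated from unphosphorylated peptide on chip, with inhibition of kinase activity computed per concentration across a dose-response series.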

Sequence of ROCK2 (O75116 whole entry, species assumed): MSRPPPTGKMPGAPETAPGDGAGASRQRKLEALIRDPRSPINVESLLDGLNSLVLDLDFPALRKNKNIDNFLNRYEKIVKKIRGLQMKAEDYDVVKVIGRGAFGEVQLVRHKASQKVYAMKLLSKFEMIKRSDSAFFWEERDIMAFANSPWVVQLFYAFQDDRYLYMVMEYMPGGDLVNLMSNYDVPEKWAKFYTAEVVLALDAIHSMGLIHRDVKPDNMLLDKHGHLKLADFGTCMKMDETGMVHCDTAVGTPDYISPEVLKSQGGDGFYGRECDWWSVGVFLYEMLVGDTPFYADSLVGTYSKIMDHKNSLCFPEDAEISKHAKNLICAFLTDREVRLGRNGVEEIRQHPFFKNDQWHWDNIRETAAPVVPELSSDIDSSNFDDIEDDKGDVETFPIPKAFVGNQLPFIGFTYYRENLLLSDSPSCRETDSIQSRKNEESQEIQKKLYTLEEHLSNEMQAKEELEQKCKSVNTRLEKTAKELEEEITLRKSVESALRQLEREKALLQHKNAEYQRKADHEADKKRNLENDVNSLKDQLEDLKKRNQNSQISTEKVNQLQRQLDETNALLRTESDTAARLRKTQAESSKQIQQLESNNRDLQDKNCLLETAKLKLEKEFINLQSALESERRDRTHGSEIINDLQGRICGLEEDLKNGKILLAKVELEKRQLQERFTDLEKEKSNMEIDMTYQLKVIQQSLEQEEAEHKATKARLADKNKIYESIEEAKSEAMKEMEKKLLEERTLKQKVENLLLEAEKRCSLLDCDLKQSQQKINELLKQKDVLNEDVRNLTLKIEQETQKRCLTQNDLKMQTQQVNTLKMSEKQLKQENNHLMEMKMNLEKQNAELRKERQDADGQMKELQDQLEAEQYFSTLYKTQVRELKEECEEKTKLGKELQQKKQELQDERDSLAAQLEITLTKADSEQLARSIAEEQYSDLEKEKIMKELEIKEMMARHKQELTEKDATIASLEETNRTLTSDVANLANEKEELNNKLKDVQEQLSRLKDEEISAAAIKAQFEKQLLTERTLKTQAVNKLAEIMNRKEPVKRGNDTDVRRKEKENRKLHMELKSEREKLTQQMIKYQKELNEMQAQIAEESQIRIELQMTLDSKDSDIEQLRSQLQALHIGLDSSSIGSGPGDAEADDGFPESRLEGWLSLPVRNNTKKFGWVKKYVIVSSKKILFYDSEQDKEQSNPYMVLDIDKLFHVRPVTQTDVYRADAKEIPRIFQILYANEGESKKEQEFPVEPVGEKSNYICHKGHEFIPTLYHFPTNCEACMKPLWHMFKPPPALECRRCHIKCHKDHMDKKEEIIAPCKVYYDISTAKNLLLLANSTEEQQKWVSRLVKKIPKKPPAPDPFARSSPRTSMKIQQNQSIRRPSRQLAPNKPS

Molecule	IC50
NC(=O)c1ccccc1O[C@H]1CC2(C[C@H](NC(=O)c3cnc4cc(OCCN5CCCC5)ccn34)C2)C1 (stereo partly drawn) [Example 26, N-((aR)-6-(2-carbamoylphenoxy)spiro[3.3]heptan-2-yl)-7-(2-(pyrrolidin-1-yl)ethoxy)imidazo[1,2-a]pyridine-3-carboxamdie]	5 to 50 nM
Cn1c(C(=O)N[C@H]2CC3(C2)C[C@H](Oc2ncccc2C(N)=O)C3)cc2ccccc21 (stereo partly drawn) [Example 70, N-((aR)-6-((3-carbamoylpyridin-2-yl)oxy)spiro[3.3]heptan-2-yl)-1-methyl-1H-indole-2-carboxamide, trifluoroacetate]	50 to 250 nM
NC(=O)c1cccnc1O[C@H]1CC2(C[C@H](NC(=O)c3nn(CC(F)F)c4cc(F)ccc34)C2)C1 (stereo partly drawn) [Example 175, N-((aR)-6-((3-carbamoylpyridin-2-yl)oxy)spiro[3.3]heptan-2-yl)-1-(2,2-difluoroethyl)-6-fluoro-1H-indazole-3-carboxamide, trifluoroacetate]	< 5 nM
CC(C)(O)COc1ccc2c(C(=O)NC3CC4(C3)CC(Oc3cc(-c5cccc(F)n5)ccc3C(N)=O)C4)cnn2c1 (centres unmarked) [Example 231, N-(6-(2-carbamoyl-5-(6-fluoropyridin-2-yl)phenoxy)spiro[3.3]heptan-2-yl)-6-(2-hydroxy-2-methylpropoxy)pyrazolo[1,5-a]pyridine-3-carboxamide]	< 5 nM
COc1cccc(C(N)=O)c1OC1CC2(CC(NC(=O)c3cnn4c(C5CC5)c(OCC(C)(C)O)ccc34)C2)C1 (centres unmarked) [Example 208, N-(6-(2-carbamoyl-6-methoxyphenoxy)spiro[3.3]heptan-2-yl)-7-cyclopropyl-6-(2-hydroxy-2-methylpropoxy)pyrazolo[1,5-a]pyridine-3-carboxamide]	250 to 2500 nM
CS(=O)(=O)c1cccc(C(=O)N[C@H]2CC3(C2)C[C@H](Oc2ncccc2C(N)=O)C3)c1 (stereo partly drawn) [Example 109, 2-((aR)-6-(3-(methylsulfonyl)benzamido)spiro[3.3]heptan2-- yl)oxy)nicotinamide, trifluoroacetate]	50 to 250 nM
Cc1cc(C(=O)N[C@H]2CC3(C2)C[C@H](Oc2ncccc2C(N)=O)C3)n(C)n1 (stereo partly drawn) [Example 83, 2-((aR)-6-(1,3-dimethyl-1H-pyrazole-5-carboxamido)spiro[3.3]heptan-2-yl)oxy)nicotinamide, trifluoroacetate]	250 to 2500 nM
[H][C@]1(Oc2cnccc2C(N)=O)C[C@@]2(C[C@H](NC(=O)c3cnn4cc(OCC(C)(C)O)ccc34)C2)C1 (stereo partly drawn) [Example 45, N-((aR)-6-((4-carbamoylpyridin-3-yl)oxy)spiro[3.3]heptan-2-yl)-6-(2-hydroxy-2-methylpropoxy)pyrazolo[1,5-a]pyridine-3-carboxamide]	50 to 250 nM
Cc1nnnn1-c1cccc(C(=O)N[C@H]2CC3(C2)C[C@H](Oc2ncccc2C(N)=O)C3)c1 (stereo partly drawn) [Example 142, 2-(((aR)-6-(3-(5-methyl-1H-tetrazol-1-yl)benzamido)spiro[3.3]heptan-2-yl)oxy) nicotinamide, trifluoroacetate]	50 to 250 nM
N#Cc1cc(C(=O)N[C@H]2CC3(C2)C[C@H](Oc2ncccc2C(N)=O)C3)cc(C2CC2)c1 (stereo partly drawn) [Example 183, 2-(((aR)-6-(3-cyano-5-cyclopropylbenzamido)spiro[3.3]heptan-2-yl)oxy) nicotinamide, trifluoroacetate]	5 to 50 nM
CN1CCN(c2ccc(C(N)=O)c(OC3CC4(CC(NC(=O)c5cnn6cc(OCC(C)(C)O)ccc56)C4)C3)c2)CC1 (centres unmarked) [Example 224, N-(6-(2-carbamoyl-5-(4-methylpiperazin-1-yl)phenoxy)spiro[3.3]heptan-2-yl)-6-(2-hydroxy-2-methylpropoxy)pyrazolo[1,5-a]pyridine-3-carboxamide]	5 to 50 nM
NC(=O)c1cccnc1O[C@H]1CC2(C[C@H](NC(=O)c3cnn4c(C5CC5)c(OC(CF)CF)ccc34)C2)C1 (stereo partly drawn) [Example 341, N-((aR)-6-((3-carbamoylpyridin-2-yl)oxy)spiro[3.3]heptan-2-yl)-7-cyclopropyl-6-((1,3-difluoropropan-2-yl)oxy)pyrazolo[1,5-a]pyridine-3-carboxamide]	< 5 nM
NC(=O)c1cccnc1OC1CC2(CC(NC(=O)c3cnn(-c4ccccc4Cl)c3)C2)C1 (centres unmarked) [Example 397]	5 to 50 nM
NC(=O)c1ccccc1O[C@H]1CC2(C[C@H](NC(=O)c3cnn4cc(OCC(F)F)ccc34)C2)C1 (stereo partly drawn) [Example 22, N-[(aR)-6-(2-carbamoylphenoxy)spiro[3.3]heptan-2-yl]-6-(2,2-difluoroethoxy)pyrazolo [1,5-a]pyridine-3-carboxamide]	5 to 50 nM
CC(C)(O)COc1ccc2c(C(=O)NC3CC4(C3)CC(Oc3cc(C5CCNC5)ccc3C(N)=O)C4)cnn2c1 (centres unmarked) [Example 301, N-(6-(2-carbamoyl-5-(pyrrolidin-3-yl)phenoxy)spiro[3.3]heptan-2-yl)-6-(2-hydroxy-2-methylpropoxy)pyrazolo[1,5-a]pyridine-3-carboxamide]	5 to 50 nM
NC(=O)c1cccnc1O[C@H]1CC2(C[C@H](NC(=O)c3cnn4cc(N5CCC(F)(F)CC5)ccc34)C2)C1 (stereo partly drawn) [Example 316, N-((aR)-6-((3-carbamoylpyridin-2-yl)oxy)spiro[3.3]heptan-2-yl)-6-(4,4-difluoropiperidin-1-yl)pyrazolo[1,5-a]pyridine-3-carboxamide]	< 5 nM
CC(C)(O)COc1ccc2c(C(=O)N[C@H]3CC4(C3)C[C@H](Oc3nnccc3C(N)=O)C4)cnn2c1 (stereo partly drawn) [Example 48, N-((aR)-6-((4-carbamoylpyridazin-3-yl)oxy)spiro[3.3]heptan-2-yl)-6-(2-hydroxy-2-methylpropoxy)pyrazolo[1,5-a]pyridine-3-carboxamide]	50 to 250 nM
COc1ccc2c(c1)CCN2C(=O)N[C@H]1CC2(C1)C[C@H](Oc1ccccc1C(N)=O)C2 (stereo partly drawn) [Example 38, N-[(aR)-6-(2-carbamoylphenoxy)spiro [3.3]heptan-2-yl]-5-methoxy-2,3-dihydro-1H-indole-1-carboxamide]	5 to 50 nM
Cc1c(C(=O)NC2CC3(C2)CC(Oc2ncccc2C(N)=O)C3)cnn1-c1ccc(C#N)c(F)c1 (centres unmarked) [Example 391]	50 to 250 nM
Cc1nc(-c2cc(C#N)cc(C(=O)N[C@H]3CC4(C3)C[C@H](Oc3ncccc3C(N)=O)C4)c2)cs1 (stereo partly drawn) [Example 203, 2-(((aR)-6-(3-cyano-5-(2-methylthiazol-4-yl)benzamido)spiro[3.3]heptan-2-yl)oxy)nicotinamide, trifluoroacetate]	5 to 50 nM

Same assay, conditions: read-out: ROCK2 Activity (ROCK2 IC50); 5 μM ATP, 1.5 μM peptide substrate, pH 7.5

Molecule	IC50
N-((aR)-6-((3- carbamoylpyridin-2- yl)oxy)spiro[3.3] heptan-2-yl)- 6-(3-hydroxy-3- methylbutoxy) pyrazolo[1,5- a]pyridine-3- carboxamide, trifluoroacetate [Example 123]	5 to 50 nM
NC(=O)c1cccnc1OC1CC2(CC(NC(=O)c3nc(C(F)F)n4cc(N5CCOCC5)ccc34)C2)C1 [Example 440, N-((aR)-6-((3-carbamoylpyridin-2-yl)oxy)spiro[3.3]heptan-2-yl)-3-(difluoromethyl)-6-morpholinoimidazo[1,5-a]pyridine-1-carboxamide]	< 5 nM
N-((aR)-6-((3- carbamoylpyridin-2- yl)oxxy)spiro[3.3] heptan-2-yl)- 5-fluoro-1- (2-hydroxy-2- methylpropyl)- 3a,7a-dihydro- 1H-indazole-3- carboxamide, trifluoroacetate [Example 67]	5 to 50 nM
